Measurements as given in article PMC8954547, “Nonpeptidic Z360-Analogs Tagged with Trivalent Radiometals as Anti-CCK2R Cancer Theranostic Agents: A Preclinical Study” (Pharmaceutics, 2022).

Experiments:
[1] = Radioligand stability in mice (radio-HPLC of blood and urine); type: in vivo; conditions: mean ± SD
Method in brief: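 Male Swiss albino mice (n=3) given 2.5–3 nmol radioligand i.v. via tail vein in saline/EtOH 9/1. Blood at 5 min and urine at 30 min pi, EDTA-treated on ice, MeCN-deproteinised, analysed by radio-RP-HPLC; value is mean percent intact radioligand ± SD.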

[2] = system: SCID mice bearing twin HEK293-CCK2i4svR and wtHEK293 tumors; assay: Biodistribution in SCID mice bearing twin HEK293-CCK2i4svR and wtHEK293 xenografts; type: in vivo
Method in brief: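 Uptake is expressed as %IA/g (mean ± SD, n = 4) from gamma counting of blood, organs and tumours collected at set times: 1, 4 and 24 h pi for ^67Ga, 4 and 24 h for ^111In (±gelofusine), 4–96 h for ^177Lu. Radioligands were given iv at 7–40 pmol to SCID mice bearing twin CCK2i4svR-transfected and wild-type HEK293 xenografts.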

[3] = system: HEK293-CCK2i4svR and wtHEK293 xenografts; assay: SPECT/CT of HEK293-CCK2i4svR and wtHEK293 xenografts; type: in vivo, mice; conditions: 4 h and 24 h pi
Procedure: For SPECT/CT imaging, six mice bearing twin HEK293-CCK2i4svR and wtHEK293 tumors were injected in the tail vein with a bolus containing [^111In]In-GAS1/2/3 (100 μL, 9–12 MBq associated with 3 nmol total injected analog in-vehicle: saline/EtOH 9/1 v/v). Mice were euthanized at 4 h and 24 h pi. Tomographic SPECT/CT imaging was performed with the y-CUBE/x-CUBE systems (Molecubes, Belgium). The SPECT system is based on monolithic NaI detectors attached to SiPMs, with a 0.6 mm intrinsic resolution. The CT system is based on a structured CMOS detector of CsI with pixels of 75 µm and operates between 35–80 kVp, 10–500 µA tube current, with a 33 µm fixed focal spot size. SPECT scans were acquired 4 h pi and 24 h pi, with a 40–50 min duration protocol based on the injected activity, and each SPECT scan was succeeded by a CT scan, following General-Purpose protocol under 50 kVp, for co-registration purposes. SPECT images were reconstructed using the MLEM reconstruction method with a 250 µm voxel size and 500 iterations. CT images were reconstructed using the ISRA reconstruction method with a 100 µm voxel size.
Images were exported and post-processed on VivoQuant software, version 4.0 (Invicro, Boston). A smoothing median filter (0.6 mm, spherical window) was applied to the images, and the bladder was removed for consistency purposes. Normalization of images was performed (i.e., all images having the same color scale range values) to achieve a direct visual comparison between the different groups.

[4] = 4 h + Gelo (Gelofusine-treated mice)
[5] = 24 h + Gelo (Gelofusine-treated mice)

For `CC(C)(C)C(=O)CN1C(=O)[C@H](NC(=O)Nc2cccc(C(=O)NCCOCCOCCOCCNC(=O)[C@H](CCC(=O)O)NC(=O)CN3CCN(CC(=O)[O-])CCN(CC(=O)[O-])CCN(CC(=O)[O-])CC3)c2)CN(C2CCCCC2)c2ccccc21.[111In+3]` (stereo in doubt) [[^111In]In-GAS1], the “Intact radioligand in blood” value ([1]; mice blood collected 5 min pi) was 84.6 ± 2.4 (3) %, the “Intact radioligand in urine” value ([1]; mice urine collected 30 min pi) was 85.2 ± 5.2 (3) % and the “Biodistribution, Blood” value [2, 4] was 2.75 ± 0.48 %IA/g. The “Biodistribution, CCK2i4svR(+) Tumor” value [2, 4] was 19.17 ± 2.06 %IA/g, the “Biodistribution, CCK2i4svR(-) Tumor” value [2, 4] was 0.86 ± 0.15 %IA/g and the “Biodistribution, Femur” value [2, 4] was 0.65 ± 0.15 %IA/g. For the same compound, the “Biodistribution, Heart” value [2, 4] was 0.92 ± 0.16 %IA/g, the “Biodistribution, Intestines” value [2, 4] was 1.87 ± 0.08 %IA/g and the “Biodistribution, Kidneys” value [2, 4] was 5.93 ± 0.56 %IA/g. For the same compound, the “Biodistribution, Liver” value [2, 4] was 6.34 ± 0.86 %IA/g, the “Biodistribution, Muscle” value [2, 4] was 0.28 ± 0.06 %IA/g and the “Biodistribution, Pancreas” value [2, 4] was 1.47 ± 0.26 %IA/g. The “Biodistribution, Spleen” value [2, 4] was 1.13 ± 0.28 %IA/g, the “Biodistribution, Stomach” value [2, 4] was 0.77 ± 0.14 %IA/g and the “Biodistribution, Blood” value ([2]; 4 h pi) was 3.51 ± 0.56 %IA/g. For the same compound, the “Biodistribution, CCK2i4svR(+) Tumor” value ([2]; 4 h pi) was 17.79 ± 1.73 %IA/g, the “Biodistribution, CCK2i4svR(-) Tumor” value ([2]; 4 h pi) was 0.73 ± 0.05 %IA/g and the “Biodistribution, Femur” value ([2]; 4 h pi) was 0.77 ± 0.13 %IA/g. The “Biodistribution, Heart” value ([2]; 4 h pi) was 1.10 ± 0.19 %IA/g, the “Biodistribution, Intestines” value ([2]; 4 h pi) was 3.37 ± 0.89 %IA/g and the “Biodistribution, Kidneys” value ([2]; 4 h pi) was 6.06 ± 1.24 %IA/g. For the same compound, the “Biodistribution, Liver” value ([2]; 4 h pi) was 7.69 ± 1.00 %IA/g, the “Biodistribution, Lungs” value ([2]; 4 h pi) was 2.23 ± 0.39 %IA/g and the “Biodistribution, Muscle” value ([2]; 4 h pi) was 0.26 ± 0.04 %IA/g. The “Biodistribution, Pancreas” value ([2]; 4 h pi) was 1.49 ± 0.19 %IA/g, the “Biodistribution, Spleen” value ([2]; 4 h pi) was 1.56 ± 0.22 %IA/g and the “Biodistribution, Stomach” value ([2]; 4 h pi) was 0.98 ± 0.21 %IA/g. The “Biodistribution, Blood” value [2, 5] was 0.07 ± 0.01 %IA/g, the “Biodistribution, CCK2i4svR(+) Tumor” value [2, 5] was 4.51 ± 0.55 %IA/g and the “Biodistribution, CCK2i4svR(-) Tumor” value [2, 5] was 0.23 ± 0.04 %IA/g. For the same compound, the “Biodistribution, Femur” value [2, 5] was 0.16 ± 0.01 %IA/g, the “Biodistribution, Heart” value [2, 5] was 0.15 ± 0.02 %IA/g and the “Biodistribution, Intestines” value [2, 5] was 0.49 ± 0.13 %IA/g. The “Biodistribution, Kidneys” value [2, 5] was 1.69 ± 0.13 %IA/g, the “Biodistribution, Liver” value [2, 5] was 1.30 ± 0.15 %IA/g and the “Biodistribution, Lungs” value [2, 5] was 0.39 ± 0.03 %IA/g. For the same compound, the “Biodistribution, Muscle” value [2, 5] was 0.06± 0.01 %IA/g, the “Biodistribution, Pancreas” value [2, 5] was 0.14 ± 0.01 %IA/g and the “Biodistribution, Spleen” value [2, 5] was 0.48 ± 0.08 %IA/g. The “Biodistribution, Stomach” value [2, 5] was 0.25 ± 0.04 %IA/g, the “Biodistribution, Blood” value ([2]; 24 h pi) was 0.08 ± 0.01 %IA/g and the “Biodistribution, CCK2i4svR(+) Tumor” value ([2]; 24 h pi) was 5.40 ± 1.13 %IA/g. For the same compound, the “Biodistribution, CCK2i4svR(-) Tumor” value ([2]; 24 h pi) was 0.27 ± 0.10 %IA/g, the “Biodistribution, Femur” value ([2]; 24 h pi) was 0.16 ± 0.03 %IA/g and the “Biodistribution, Heart” value ([2]; 24 h pi) was 0.15 ± 0.03 %IA/g. For the same compound, the “Biodistribution, Intestines” value ([2]; 24 h pi) was 0.59 ± 0.11 %IA/g, the “Biodistribution, Kidneys” value ([2]; 24 h pi) was 1.84 ± 0.38 %IA/g and the “Biodistribution, Liver” value ([2]; 24 h pi) was 2.27 ± 0.30 %IA/g. For the same compound, the “Biodistribution, Lungs” value ([2]; 24 h pi) was 0.36 ± 0.05 %IA/g, the “Biodistribution, Muscle” value ([2]; 24 h pi) was 0.06± 0.00 %IA/g and the “Biodistribution, Pancreas” value ([2]; 24 h pi) was 0.18 ± 0.03 %IA/g. For the same compound, the “Biodistribution, Spleen” value ([2]; 24 h pi) was 0.64 ± 0.12 %IA/g, the “Biodistribution, Stomach” value ([2]; 24 h pi) was 0.21 ± 0.05 %IA/g and the “SPECT/CT uptake in CCK2i4svR expressing tumors” value [3] was “Intense uptake”. For the same compound, the “SPECT/CT uptake in wtHEK293 tumors devoid of CCK2i4svR expression” value [3] was “no uptake is evident”.
